# In article doi:10.1101/2020.06.11.145995v1 (biorxiv, 2020):
# Where two headings read alike, the source gives them in different places.
# Key:
# Assay in all cases: biochemical
# AKT1 = AKT1 (Homo sapiens, UniProt P31749)
# BLK = BLK (Homo sapiens, UniProt P51451)
# BMPR1A = BMPR1A (Homo sapiens, UniProt P36894)
# BMPR1B = BMPR1B (Homo sapiens, UniProt O00238)
# BRSK2 = BRSK2 (Homo sapiens, UniProt Q8IWQ3)
# CAMK1G = CAMK1G (Homo sapiens, UniProt Q96NX5)
# CASK = CASK (Homo sapiens, UniProt O14936)
# CDK2 = CDK2 (Homo sapiens, UniProt P24941)
# CDK3 = CDK3 (Homo sapiens, UniProt Q00526)
# CDK4-cyclinD1 = CDK4-cyclinD1 (Homo sapiens, UniProt P11802)
# CDK7 = CDK7 (Homo sapiens, UniProt P50613)
# CHEK2 = CHEK2 (Homo sapiens, UniProt O96017)
# CSNK1D = CSNK1D (Homo sapiens, UniProt P48730)
# CSNK2A2 = CSNK2A2 (Homo sapiens, UniProt P19784)
# DAPK1 = DAPK1 (Homo sapiens, UniProt P53355)
# DRAK1 = DRAK1 (Homo sapiens, UniProt Q9UEE5)
# DRAK2 = DRAK2 (Homo sapiens, UniProt O94768)
# EGFR(L858R) = EGFR(L858R) (Homo sapiens, UniProt P00533, L858R)
# FLT3(N841I) = FLT3(N841I) (Homo sapiens, UniProt P36888, N841I)
# FLT3(R834Q) = FLT3(R834Q) (Homo sapiens, UniProt P36888, R834Q)
# HUNK = HUNK (Homo sapiens, UniProt P57058)
# ICK = ICK (Homo sapiens, UniProt Q9UPZ9)
# IKK-beta = IKK-beta (Homo sapiens, UniProt O14920)
# ITK = ITK (Homo sapiens, UniProt Q08881)
# MAPKAPK5 = MAPKAPK5 (Homo sapiens, UniProt Q8IW41)
# MEK3 = MEK3 (Homo sapiens, UniProt P46734)
# MELK = MELK (Homo sapiens, UniProt Q14680)
# MINK = MINK (Homo sapiens, UniProt Q8N4C8)
# MRCKA = MRCKA (Homo sapiens, UniProt Q5VT25)
# MST1R = MST1R (Homo sapiens, UniProt Q04912)
# [1] = read-out: CPT-1-70-1 (1uM) % control
# [2] = read-out: HYJ-2-002-1 (1uM) % control
# CHEK2, sequence (O96017 whole entry): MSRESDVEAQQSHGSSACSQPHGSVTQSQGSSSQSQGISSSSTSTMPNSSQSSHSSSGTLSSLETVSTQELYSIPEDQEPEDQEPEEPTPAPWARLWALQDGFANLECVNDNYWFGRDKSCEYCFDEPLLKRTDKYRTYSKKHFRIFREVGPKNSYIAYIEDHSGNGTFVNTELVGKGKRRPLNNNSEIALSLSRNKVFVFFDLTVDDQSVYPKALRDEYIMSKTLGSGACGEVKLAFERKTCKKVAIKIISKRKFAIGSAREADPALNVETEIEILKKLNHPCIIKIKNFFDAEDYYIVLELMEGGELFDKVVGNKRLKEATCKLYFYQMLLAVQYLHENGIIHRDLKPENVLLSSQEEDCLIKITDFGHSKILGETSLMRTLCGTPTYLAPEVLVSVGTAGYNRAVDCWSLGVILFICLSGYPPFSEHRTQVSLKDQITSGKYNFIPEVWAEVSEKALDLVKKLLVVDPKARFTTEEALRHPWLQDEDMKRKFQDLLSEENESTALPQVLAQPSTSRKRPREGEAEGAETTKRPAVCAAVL
# DRAK2, sequence (O94768 whole entry): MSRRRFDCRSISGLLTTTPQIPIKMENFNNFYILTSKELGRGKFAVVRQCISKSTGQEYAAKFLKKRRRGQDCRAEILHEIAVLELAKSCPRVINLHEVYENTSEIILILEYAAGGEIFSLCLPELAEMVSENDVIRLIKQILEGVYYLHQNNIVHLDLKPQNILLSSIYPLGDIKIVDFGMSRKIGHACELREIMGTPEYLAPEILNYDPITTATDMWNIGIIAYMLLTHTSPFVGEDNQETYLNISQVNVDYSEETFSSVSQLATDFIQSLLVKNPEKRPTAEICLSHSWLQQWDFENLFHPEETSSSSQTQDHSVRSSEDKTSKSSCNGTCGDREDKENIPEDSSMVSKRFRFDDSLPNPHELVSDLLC
# BLK, sequence (P51451 whole entry): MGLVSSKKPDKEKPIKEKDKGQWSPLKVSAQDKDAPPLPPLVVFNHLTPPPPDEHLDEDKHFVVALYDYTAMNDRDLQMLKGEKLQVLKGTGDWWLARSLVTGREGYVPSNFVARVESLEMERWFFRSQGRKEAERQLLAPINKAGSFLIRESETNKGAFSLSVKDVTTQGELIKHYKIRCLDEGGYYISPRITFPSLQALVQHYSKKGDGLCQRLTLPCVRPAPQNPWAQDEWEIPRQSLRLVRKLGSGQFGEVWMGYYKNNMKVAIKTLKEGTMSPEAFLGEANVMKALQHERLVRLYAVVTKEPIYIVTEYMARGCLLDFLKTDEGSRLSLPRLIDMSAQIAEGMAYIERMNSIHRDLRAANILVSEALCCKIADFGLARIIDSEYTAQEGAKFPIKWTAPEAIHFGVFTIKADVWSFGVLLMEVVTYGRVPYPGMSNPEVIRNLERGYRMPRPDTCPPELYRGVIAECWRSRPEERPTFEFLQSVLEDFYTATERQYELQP
# IKK-beta, sequence (O14920 whole entry): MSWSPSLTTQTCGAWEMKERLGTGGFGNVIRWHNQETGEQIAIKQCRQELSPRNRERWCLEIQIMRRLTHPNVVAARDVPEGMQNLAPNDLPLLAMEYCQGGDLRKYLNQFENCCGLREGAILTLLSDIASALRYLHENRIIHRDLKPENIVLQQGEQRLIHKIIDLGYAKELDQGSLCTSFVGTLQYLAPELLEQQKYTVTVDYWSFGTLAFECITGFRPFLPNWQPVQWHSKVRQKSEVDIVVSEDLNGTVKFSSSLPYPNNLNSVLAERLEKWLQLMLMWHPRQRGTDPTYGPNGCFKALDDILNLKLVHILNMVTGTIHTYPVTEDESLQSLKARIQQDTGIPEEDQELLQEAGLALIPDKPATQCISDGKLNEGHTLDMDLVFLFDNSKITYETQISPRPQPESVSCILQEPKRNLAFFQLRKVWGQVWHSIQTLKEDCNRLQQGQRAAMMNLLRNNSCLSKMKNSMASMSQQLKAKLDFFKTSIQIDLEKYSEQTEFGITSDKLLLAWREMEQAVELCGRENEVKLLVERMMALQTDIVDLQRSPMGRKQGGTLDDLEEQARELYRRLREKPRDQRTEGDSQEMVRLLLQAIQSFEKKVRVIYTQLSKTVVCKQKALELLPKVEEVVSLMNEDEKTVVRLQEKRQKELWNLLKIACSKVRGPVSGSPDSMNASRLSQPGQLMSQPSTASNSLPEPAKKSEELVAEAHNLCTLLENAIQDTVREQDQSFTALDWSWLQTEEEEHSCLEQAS
# BMPR1A, sequence (P36894 whole entry): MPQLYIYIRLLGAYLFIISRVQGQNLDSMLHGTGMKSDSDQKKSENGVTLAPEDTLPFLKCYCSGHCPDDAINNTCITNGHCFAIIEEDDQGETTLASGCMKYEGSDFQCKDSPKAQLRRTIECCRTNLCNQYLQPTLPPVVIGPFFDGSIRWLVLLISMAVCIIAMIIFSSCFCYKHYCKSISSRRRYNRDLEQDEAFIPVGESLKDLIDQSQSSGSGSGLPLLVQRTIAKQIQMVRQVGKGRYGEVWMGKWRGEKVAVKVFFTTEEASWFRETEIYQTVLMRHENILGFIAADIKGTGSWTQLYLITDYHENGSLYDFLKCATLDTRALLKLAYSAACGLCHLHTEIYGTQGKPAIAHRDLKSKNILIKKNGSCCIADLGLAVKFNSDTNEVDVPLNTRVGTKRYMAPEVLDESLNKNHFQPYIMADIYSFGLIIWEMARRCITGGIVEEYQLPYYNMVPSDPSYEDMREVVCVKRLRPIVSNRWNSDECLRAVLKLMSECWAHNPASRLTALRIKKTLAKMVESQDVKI
# CASK, sequence (O14936 whole entry): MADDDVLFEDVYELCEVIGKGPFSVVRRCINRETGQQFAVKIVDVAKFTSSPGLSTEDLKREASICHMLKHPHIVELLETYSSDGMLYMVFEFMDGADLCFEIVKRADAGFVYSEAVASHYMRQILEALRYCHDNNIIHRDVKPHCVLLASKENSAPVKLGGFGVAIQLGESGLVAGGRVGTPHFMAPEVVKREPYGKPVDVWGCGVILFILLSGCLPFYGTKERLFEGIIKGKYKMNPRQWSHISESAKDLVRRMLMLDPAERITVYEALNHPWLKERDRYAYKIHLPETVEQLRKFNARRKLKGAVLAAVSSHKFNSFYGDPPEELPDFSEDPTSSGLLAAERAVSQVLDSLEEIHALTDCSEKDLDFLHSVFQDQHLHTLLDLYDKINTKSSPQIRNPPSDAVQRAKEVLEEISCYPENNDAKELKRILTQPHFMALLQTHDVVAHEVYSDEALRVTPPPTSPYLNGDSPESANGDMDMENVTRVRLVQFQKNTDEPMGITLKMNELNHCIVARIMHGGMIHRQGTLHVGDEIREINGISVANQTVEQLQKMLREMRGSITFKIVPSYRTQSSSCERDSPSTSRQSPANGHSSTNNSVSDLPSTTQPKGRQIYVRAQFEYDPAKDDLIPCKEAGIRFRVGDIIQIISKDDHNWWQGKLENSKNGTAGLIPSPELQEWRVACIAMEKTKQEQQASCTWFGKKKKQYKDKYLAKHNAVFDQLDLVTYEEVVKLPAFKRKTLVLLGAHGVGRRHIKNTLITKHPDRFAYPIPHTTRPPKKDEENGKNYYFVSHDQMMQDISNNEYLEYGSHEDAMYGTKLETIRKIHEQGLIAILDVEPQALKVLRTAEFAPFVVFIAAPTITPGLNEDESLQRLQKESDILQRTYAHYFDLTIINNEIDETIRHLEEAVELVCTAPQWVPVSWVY
# CSNK2A2, sequence (P19784 whole entry): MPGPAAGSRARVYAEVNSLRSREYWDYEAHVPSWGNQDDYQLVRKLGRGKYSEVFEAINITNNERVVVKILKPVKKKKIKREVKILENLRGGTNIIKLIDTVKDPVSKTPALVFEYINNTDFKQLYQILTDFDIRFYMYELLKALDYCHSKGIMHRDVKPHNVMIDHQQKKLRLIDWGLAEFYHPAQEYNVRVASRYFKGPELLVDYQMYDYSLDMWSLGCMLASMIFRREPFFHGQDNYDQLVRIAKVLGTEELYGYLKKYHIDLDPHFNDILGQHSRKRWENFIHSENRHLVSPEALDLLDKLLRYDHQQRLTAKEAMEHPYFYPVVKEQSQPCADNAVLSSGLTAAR
# BMPR1B, sequence (O00238 whole entry): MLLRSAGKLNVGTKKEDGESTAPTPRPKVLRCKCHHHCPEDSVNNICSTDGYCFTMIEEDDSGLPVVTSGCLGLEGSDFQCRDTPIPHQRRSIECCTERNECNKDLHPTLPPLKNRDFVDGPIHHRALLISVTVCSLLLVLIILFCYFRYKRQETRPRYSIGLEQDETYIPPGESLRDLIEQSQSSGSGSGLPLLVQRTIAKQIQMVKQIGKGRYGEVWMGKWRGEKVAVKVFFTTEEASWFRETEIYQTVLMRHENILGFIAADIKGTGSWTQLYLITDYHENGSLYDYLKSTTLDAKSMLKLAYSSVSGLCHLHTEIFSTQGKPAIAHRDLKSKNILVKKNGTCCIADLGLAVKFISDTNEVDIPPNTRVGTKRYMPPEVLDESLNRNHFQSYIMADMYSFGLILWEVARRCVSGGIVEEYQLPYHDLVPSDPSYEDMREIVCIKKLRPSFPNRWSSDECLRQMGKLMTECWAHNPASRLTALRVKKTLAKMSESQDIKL
# MAPKAPK5, sequence (Q8IW41 whole entry): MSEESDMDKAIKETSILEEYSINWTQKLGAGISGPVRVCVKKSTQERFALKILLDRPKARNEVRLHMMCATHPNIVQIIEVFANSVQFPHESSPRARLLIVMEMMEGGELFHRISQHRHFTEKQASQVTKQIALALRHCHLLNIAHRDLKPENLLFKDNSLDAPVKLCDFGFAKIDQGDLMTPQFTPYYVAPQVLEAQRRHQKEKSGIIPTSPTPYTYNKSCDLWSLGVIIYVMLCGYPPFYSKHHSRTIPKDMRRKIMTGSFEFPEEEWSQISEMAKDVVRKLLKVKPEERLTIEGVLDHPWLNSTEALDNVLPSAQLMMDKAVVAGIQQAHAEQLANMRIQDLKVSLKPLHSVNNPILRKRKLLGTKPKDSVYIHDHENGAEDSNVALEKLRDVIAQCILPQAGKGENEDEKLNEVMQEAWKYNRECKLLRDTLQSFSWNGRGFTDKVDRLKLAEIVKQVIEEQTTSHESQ
smiles,measurement,setting,value
CN1CCN(c2ccc(Nc3nc(Oc4ccc(NC(=O)CCl)cc4)c4cc[nH]c4n3)cc2)CC1 [CPT1-70-1],remaining activity at 1 µM,AKT1; [1],100%
same,remaining activity at 1 µM,BLK; [1],1.6%
same,remaining activity at 1 µM,BMPR1A; [1],100%
same,remaining activity at 1 µM,BMPR1B; [1],100%
same,remaining activity at 1 µM,BRSK2; [1],97%
same,remaining activity at 1 µM,CAMK1G; [1],50%
same,remaining activity at 1 µM,CASK; [1],100%
same,remaining activity at 1 µM,CDK2; [1],100%
same,remaining activity at 1 µM,CDK3; [1],100%
same,remaining activity at 1 µM,CDK4-cyclinD1; [1],81%
same,remaining activity at 1 µM,CDK7; [1],100%
same,remaining activity at 1 µM,CHEK2; [1],38%
same,remaining activity at 1 µM,CSNK1D; [1],43%
same,remaining activity at 1 µM,CSNK2A2; [1],28%
same,remaining activity at 1 µM,DAPK1; [1],86%
same,remaining activity at 1 µM,DRAK1; [1],14%
same,remaining activity at 1 µM,DRAK2; [1],90%
same,remaining activity at 1 µM,EGFR(L858R); [1],22%
same,remaining activity at 1 µM,FLT3(N841I); [1],1.2%
same,remaining activity at 1 µM,FLT3(R834Q); [1],51%
same,remaining activity at 1 µM,HUNK; [1],78%
same,remaining activity at 1 µM,ICK; [1],100%
same,remaining activity at 1 µM,IKK-beta; [1],100%
same,remaining activity at 1 µM,ITK; [1],0.85%
same,remaining activity at 1 µM,MAPKAPK5; [1],98%
same,remaining activity at 1 µM,MEK3; [1],26%
same,remaining activity at 1 µM,MELK; [1],16%
same,remaining activity at 1 µM,MINK; [1],41%
same,remaining activity at 1 µM,MRCKA; [1],100%
same,remaining activity at 1 µM,MST1R; [1],100%
CCN1CCN(Cc2ccc(NC(=O)c3ccc(C)c(CCc4cnc5[nH]ccc5c4OC)c3)cc2C(F)(F)F)CC1 [HYJ-2-002-1],remaining activity at 1 µM,AKT1; [2],100%
same,remaining activity at 1 µM,BLK; [2],0.1%
same,remaining activity at 1 µM,BMPR1A; [2],100%
same,remaining activity at 1 µM,BMPR1B; [2],100%
same,remaining activity at 1 µM,BRSK2; [2],91%
same,remaining activity at 1 µM,CAMK1G; [2],94%
same,remaining activity at 1 µM,CASK; [2],100%
same,remaining activity at 1 µM,CDK2; [2],100%
same,remaining activity at 1 µM,CDK3; [2],99%
same,remaining activity at 1 µM,CDK4-cyclinD1; [2],80%
same,remaining activity at 1 µM,CDK7; [2],44%
same,remaining activity at 1 µM,CHEK2; [2],63%
same,remaining activity at 1 µM,CSNK1D; [2],73%
same,remaining activity at 1 µM,CSNK2A2; [2],100%
same,remaining activity at 1 µM,DAPK1; [2],98%
same,remaining activity at 1 µM,DRAK1; [2],82%
same,remaining activity at 1 µM,DRAK2; [2],57%
same,remaining activity at 1 µM,EGFR(L858R); [2],3.2%
same,remaining activity at 1 µM,FLT3(N841I); [2],1.5%
same,remaining activity at 1 µM,FLT3(R834Q); [2],44%
same,remaining activity at 1 µM,HUNK; [2],79%
same,remaining activity at 1 µM,ICK; [2],100%
same,remaining activity at 1 µM,IKK-beta; [2],0.3%
same,remaining activity at 1 µM,ITK; [2],75%
same,remaining activity at 1 µM,MAPKAPK5; [2],100%
same,remaining activity at 1 µM,MEK3; [2],100%
same,remaining activity at 1 µM,MELK; [2],48%
same,remaining activity at 1 µM,MINK; [2],33%
same,remaining activity at 1 µM,MRCKA; [2],100%
same,remaining activity at 1 µM,MST1R; [2],100%
